S=c1[nH]c2ccccc2s1
Conditions | solubility (mole fraction)
in 1,4-dioxane, 285.65 K | 0.0438
in 1,4-dioxane, 288.15 K | 0.0466
in 1,4-dioxane, 290.65 K | 0.0502
in 1,4-dioxane, 293.15 K | 0.0536
in 1,4-dioxane, 295.65 K | 0.0574
in 1,4-dioxane, 298.15 K | 0.0613
in 1,4-dioxane, 300.65 K | 0.0652
in 1,4-dioxane, 303.15 K | 0.0698
in 1,4-dioxane, 305.65 K | 0.0742
in 1,4-dioxane, 308.15 K | 0.079
in 1,4-dioxane, 310.65 K | 0.0835
in 1,4-dioxane, 313.15 K | 0.0893
in 1,4-dioxane, 315.65 K | 0.0943
in 1,4-dioxane, 318.15 K | 0.101
in 2-butanone, 273.15 K | 0.0695
in 2-butanone, 275.65 K | 0.0722
in 2-butanone, 278.15 K | 0.0752
in 2-butanone, 280.65 K | 0.0778
in 2-butanone, 283.15 K | 0.0807
in 2-butanone, 285.65 K | 0.0837
in 2-butanone, 288.15 K | 0.0867
in 2-butanone, 290.65 K | 0.0902
in 2-butanone, 293.15 K | 0.093
in 2-butanone, 295.65 K | 0.0967
in 2-butanone, 298.15 K | 0.0995
in 2-butanone, 300.65 K | 0.103
in 2-butanone, 303.15 K | 0.106
in 2-butanone, 305.65 K | 0.11
in 2-butanone, 308.15 K | 0.113
in 2-butanone, 310.65 K | 0.116
in 2-butanone, 313.15 K | 0.12
in 2-butanone, 315.65 K | 0.124
in 2-butanone, 318.15 K | 0.128
in acetonitrile, 273.15 K | 0.00426
in acetonitrile, 275.65 K | 0.00467
in acetonitrile, 278.15 K | 0.00507
in acetonitrile, 280.65 K | 0.00553
in acetonitrile, 283.15 K | 0.00597
in acetonitrile, 285.65 K | 0.00647
in acetonitrile, 288.15 K | 0.00705
in acetonitrile, 290.65 K | 0.00762
in acetonitrile, 293.15 K | 0.00819
in acetonitrile, 295.65 K | 0.00885
in acetonitrile, 298.15 K | 0.00956
in acetonitrile, 300.65 K | 0.0102
in acetonitrile, 303.15 K | 0.011
in acetonitrile, 305.65 K | 0.0118
in acetonitrile, 308.15 K | 0.0127
in acetonitrile, 310.65 K | 0.0137
in acetonitrile, 313.15 K | 0.0146
in acetonitrile, 315.65 K | 0.0155
in acetonitrile, 318.15 K | 0.0167
in chloroform, 273.15 K | 0.00683
in chloroform, 275.65 K | 0.0072
in chloroform, 278.15 K | 0.00766
in chloroform, 280.65 K | 0.00816
in chloroform, 283.15 K | 0.00865
in chloroform, 285.65 K | 0.00922
in chloroform, 288.15 K | 0.00972
in chloroform, 290.65 K | 0.0104
in chloroform, 293.15 K | 0.0109
in chloroform, 295.65 K | 0.0115
in chloroform, 298.15 K | 0.0121
in chloroform, 300.65 K | 0.0128
in chloroform, 303.15 K | 0.0135
in chloroform, 305.65 K | 0.0142
in chloroform, 308.15 K | 0.0149
in chloroform, 310.65 K | 0.0156
in chloroform, 313.15 K | 0.0165
in chloroform, 315.65 K | 0.0172
in chloroform, 318.15 K | 0.0182
in ethyl acetate, 273.15 K | 0.0274
in ethyl acetate, 275.65 K | 0.0286
in ethyl acetate, 278.15 K | 0.0297
in ethyl acetate, 280.65 K | 0.0309
in ethyl acetate, 283.15 K | 0.0323
in ethyl acetate, 285.65 K | 0.0336
in ethyl acetate, 288.15 K | 0.0348
in ethyl acetate, 290.65 K | 0.0361
in ethyl acetate, 293.15 K | 0.0374
in ethyl acetate, 295.65 K | 0.0389
in ethyl acetate, 298.15 K | 0.0403
in ethyl acetate, 300.65 K | 0.0419
in ethyl acetate, 303.15 K | 0.0434
in ethyl acetate, 305.65 K | 0.0448
in ethyl acetate, 308.15 K | 0.0465
in ethyl acetate, 310.65 K | 0.0482
in ethyl acetate, 313.15 K | 0.0499
in ethyl acetate, 315.65 K | 0.0513
in ethyl acetate, 318.15 K | 0.0532
in isobutanol, 273.15 K | 0.0101
in isobutanol, 275.65 K | 0.011
in isobutanol, 278.15 K | 0.012
in isobutanol, 280.65 K | 0.0132
in isobutanol, 283.15 K | 0.0143
in isobutanol, 285.65 K | 0.0155
in isobutanol, 288.15 K | 0.0169
in isobutanol, 290.65 K | 0.0184
in isobutanol, 293.15 K | 0.0199
in isobutanol, 295.65 K | 0.0215
in isobutanol, 298.15 K | 0.0231
in isobutanol, 300.65 K | 0.0252
in isobutanol, 303.15 K | 0.027
in isobutanol, 305.65 K | 0.0292
in isobutanol, 308.15 K | 0.0311
in isobutanol, 310.65 K | 0.0336
in isobutanol, 313.15 K | 0.0361
in isobutanol, 315.65 K | 0.0386
in isobutanol, 318.15 K | 0.0411
in isopropanol, 273.15 K | 0.00949
in isopropanol, 275.65 K | 0.0103
in isopropanol, 278.15 K | 0.0111
in isopropanol, 280.65 K | 0.0122
in isopropanol, 283.15 K | 0.0134
in isopropanol, 285.65 K | 0.0148
in isopropanol, 288.15 K | 0.0161
in isopropanol, 290.65 K | 0.0175
in isopropanol, 293.15 K | 0.0192
in isopropanol, 295.65 K | 0.0208
in isopropanol, 298.15 K | 0.0224
in isopropanol, 300.65 K | 0.0242
in isopropanol, 303.15 K | 0.0261
in isopropanol, 305.65 K | 0.0282
in isopropanol, 308.15 K | 0.0305
in isopropanol, 310.65 K | 0.0328
in isopropanol, 313.15 K | 0.0352
in isopropanol, 315.65 K | 0.0378
in isopropanol, 318.15 K | 0.0408
in methanol, 273.15 K | 0.00733
in methanol, 275.65 K | 0.00795
in methanol, 278.15 K | 0.00868
in methanol, 280.65 K | 0.00946
in methanol, 283.15 K | 0.0103
in methanol, 285.65 K | 0.0111
in methanol, 288.15 K | 0.0121
in methanol, 290.65 K | 0.0131
in methanol, 293.15 K | 0.0141
in methanol, 295.65 K | 0.0153
in methanol, 298.15 K | 0.0164
in methanol, 300.65 K | 0.0178
in methanol, 303.15 K | 0.0192
in methanol, 305.65 K | 0.0205
in methanol, 308.15 K | 0.022
in methanol, 310.65 K | 0.0235
in methanol, 313.15 K | 0.0252
in methanol, 315.65 K | 0.0269
in methanol, 318.15 K | 0.0289
in n-butanol, 273.15 K | 0.0198
in n-butanol, 275.65 K | 0.0211
in n-butanol, 278.15 K | 0.0224
in n-butanol, 280.65 K | 0.0238
in n-butanol, 283.15 K | 0.0252
in n-butanol, 285.65 K | 0.0265
in n-butanol, 288.15 K | 0.0281
in n-butanol, 290.65 K | 0.0299
in n-butanol, 293.15 K | 0.0314
in n-butanol, 295.65 K | 0.0332
in n-butanol, 298.15 K | 0.0349
in n-butanol, 300.65 K | 0.0368
in n-butanol, 303.15 K | 0.0386
in n-butanol, 305.65 K | 0.0405
in n-butanol, 308.15 K | 0.0425
in n-butanol, 310.65 K | 0.045
in n-butanol, 313.15 K | 0.0468
in n-butanol, 315.65 K | 0.0489
in n-butanol, 318.15 K | 0.0513
in n-propanol, 273.15 K | 0.015
in n-propanol, 275.65 K | 0.016
in n-propanol, 278.15 K | 0.017
in n-propanol, 280.65 K | 0.0181
in n-propanol, 283.15 K | 0.0194
in n-propanol, 285.65 K | 0.0205
in n-propanol, 288.15 K | 0.0219
in n-propanol, 290.65 K | 0.0232
in n-propanol, 293.15 K | 0.0245
in n-propanol, 295.65 K | 0.026
in n-propanol, 298.15 K | 0.0277
in n-propanol, 300.65 K | 0.029
in n-propanol, 303.15 K | 0.0309
in n-propanol, 305.65 K | 0.0324
in n-propanol, 308.15 K | 0.0342
in n-propanol, 310.65 K | 0.036
in n-propanol, 313.15 K | 0.038
in n-propanol, 315.65 K | 0.04
in n-propanol, 318.15 K | 0.0421
in toluene, 273.15 K | 0.00192
in toluene, 275.65 K | 0.00205
in toluene, 278.15 K | 0.0022
in toluene, 280.65 K | 0.00236
in toluene, 283.15 K | 0.00254
in toluene, 285.65 K | 0.00272
in toluene, 288.15 K | 0.0029
in toluene, 290.65 K | 0.0031
in toluene, 293.15 K | 0.00333
in toluene, 295.65 K | 0.00354
in toluene, 298.15 K | 0.00378
in toluene, 300.65 K | 0.00405
in toluene, 303.15 K | 0.00427
in toluene, 305.65 K | 0.00454
in toluene, 308.15 K | 0.00482
in toluene, 310.65 K | 0.0051
in toluene, 313.15 K | 0.00544
in toluene, 315.65 K | 0.00572
in toluene, 318.15 K | 0.00608

Reference: BigSolDB 2.1
